Common to all, as to format: in vivo
For data set [1], the system named is Lolium perenne (LOLPE). The data set can be described thus: Example B6: post application on weeds, LOLPE. The settings on record: 312 h, after 13 days, 100 = total damage, 0 = no damage, read-out: LOLPE damage to plant. The protocol: (§1) Lolium perenne (LOLPE), Alopecurus myosuroides (ALOMY), Echinochloa crus-galli (ECHCG) and Avena fatua (AVEFA). Activity Against Weeds Seeds of a variety of test species were sown in standard soil in pots. After cultivation for 8 days under controlled conditions in a glasshouse (at 24/16° C., day/night; 14 hours light; 65% humidity), the plants were sprayed with an aqueous spray solution derived from the formulation of the technical active ingredient in acetone/water (50:50) solution containing 0.5% Tween 20 (polyoxyethelyene sorbitan monolaurate, CAS RN 9005-64-5). The test plants were then grown in a glasshouse under controlled conditions in a glasshouse (at 24/16° C., day/night; 14 hours light; 65% humidity) and watered twice daily. After 13 days, the test was evaluated (100=total damage to plant; 0=no damage to plant).

Data set [2] relates to Alopecurus myosuroides (ALOMY). The data set can be described thus: Example B6: post application on weeds, ALOMY. Particulars: 312 h, after 13 days, 100 = total damage, 0 = no damage, read-out: ALOMY damage to plant. The protocol:
as §1

The subject of data set [3] is Echinochloa crus-galli (ECHCG). The experiment in a line: Example B6: post application on weeds, ECHCG. The settings on record: 312 h, after 13 days, 100 = total damage, 0 = no damage, read-out: ECHCG damage to plant. The protocol:
as §1

Data set [4] concerns Avena fatua (AVEFA). The experiment in a line: Example B6: post application on weeds, AVEFA. Particulars: 312 h, after 13 days, 100 = total damage, 0 = no damage, read-out: AVEFA damage to plant. The protocol:
as §1

Data set [5] relates to Lolium perenne (LOLPE). The experiment in a line: Example B7: pre application on weeds, LOLPE. Particulars: 312 h, pre-emergence spray one day after sowing, evaluated after 13 days, read-out: Pre application on weeds, LOLPE (100=total damage to plant; 0=no damage to plant). The protocol: as §1, with “one day” for “8 days”
Data set [6] deals with Alopecurus myosuroides (ALOMY). The data set can be described thus: Example B7: pre application on weeds, ALOMY. The settings on record: 312 h, pre-emergence spray one day after sowing, evaluated after 13 days, read-out: Pre application on weeds, ALOMY (100=total damage to plant; 0=no damage to plant). The protocol:
as §1, with “one day” for “8 days”

The subject of data set [7] is Echinochloa crus-galli (ECHCG). The experiment in a line: Example B7: pre application on weeds, ECHCG. Particulars: 312 h, pre-emergence spray one day after sowing, evaluated after 13 days, read-out: Pre application on weeds, ECHCG (100=total damage to plant; 0=no damage to plant). The protocol: as §1, with “one day” for “8 days”
The test system of data set [8] is Avena fatua (AVEFA). The data set can be described thus: Example B7: pre application on weeds, AVEFA. Particulars: 312 h, pre-emergence spray one day after sowing, evaluated after 13 days, read-out: Pre application on weeds, AVEFA (100=total damage to plant; 0=no damage to plant). The protocol: as §1, with “one day” for “8 days”
Data set [9] concerns Winter wheat (TRZAW). The data set can be described thus: Example B8: post application on wheat, with and without safener cloquintocet-mexyl. The settings on record: after 13 days, 100 = total damage, 0 = no damage. The protocol:
Application with Safener (Cloquintocet-Mexyl) Winter wheat seeds with a seed treatment of cloquintocet-mexyl applied at a rate of 0.5 g/kg seeds were sown in standard soil in pots. After cultivation for 8 days under controlled conditions in a glasshouse (at 24/16° C., day/night; 14 hours light; 65% humidity), the plants were sprayed with an aqueous spray solution derived from the formulation of the technical active ingredient in acetone/water (50:50) solution containing 0.5% Tween 20 (polyoxyethelyene sorbitan monolaurate, CAS RN 9005-64-5). The test plants were then grown in a glasshouse under controlled conditions in a glasshouse (at 24/16° C., day/night; 14 hours light; 65% humidity) and watered twice daily. After 13 days, the test was evaluated (100=total damage to plant; 0=no damage to plant).

Where [10] appears, read: 250 g/ha + 0.5 g/kg seeds cloquintocet-mexyl.

Regarding `CON1CCN2C(=O)C(c3c(C)cc(Br)cc3C)C(=O)N2CC1` [Compound P2.9], the pest or weed control at 250 g/ha amounted to 70% in data set [1]; 60% in [2]; 60% in data set [3]; 60% in data set [4]; 80% in [5]; 80% in [6]. Moreover, the pest or weed control at 250 g/ha turned out to be 40% in data set [7] and 20% in [8]. Further, the “TRZAW damage to plant” value was determined as 20 in data set [9] (setting [10]) and 60 in data set [9] (250 g/ha, without safener).

`C#Cc1cc(C)cc(C)c1C1C(=O)N2CCN(OC)CCN2C1=O` [Compound P2.5]: the pest or weed control at 250 g/ha in [1] is 100%; in [2] it was 90%; in data set [3] it was 100%; in [4], 100%; in data set [5], 100%; in [6], 100%. In addition, the pest or weed control at 250 g/ha in data set [7] was 90%; in data set [8] it was 100%. In addition, the “TRZAW damage to plant” value in [9] (setting [10]) came to 10; in data set [9] (250 g/ha, without safener), 80.

As for `CON1CCN2C(=O)C(c3c(Cl)cc(C)cc3Br)C(=O)N2CC1` [Compound P2.10], the pest or weed control at 250 g/ha in data set [1] is 90%; in [2], 80%; in [3], 80%; in [4], 70%; in data set [5], 100%; in data set [6] it was 100%. For the same molecule, the pest or weed control at 250 g/ha in data set [7] was 100%; in [8] it was 60%. Moreover, the “TRZAW damage to plant” value amounted to 20 in data set [9] (setting [10]) and 70 in data set [9] (250 g/ha, without safener).

As for `CON1CCN2C(=O)C(c3c(C)cc(Cl)cc3Br)C(=O)N2CC1` [Compound P2.11], the pest or weed control at 250 g/ha in data set [1] was 70%; in [2], 70%; in [3], 60%; in data set [4], 60%; in [5] it was 80%; in data set [6] it was 80%. Moreover, the pest or weed control at 250 g/ha in data set [7] was 70%; in data set [8] it was 50%. Moreover, the “TRZAW damage to plant” value in data set [9] (setting [10]) was found to be 20; in data set [9] (250 g/ha, without safener), 50.

With `CCOC(=O)Oc1c(-c2c(C)cc(Cl)cc2C)c(=O)n2n1CCN(OC)CC2` [Compound P1.3], the pest or weed control at 250 g/ha is 60% in data set [1]; 80% in data set [2]; 60% in [3]; 80% in data set [4]; 10% in [5]; 0% in data set [6]. Besides, the pest or weed control at 250 g/ha in data set [7] turned out to be 20%; in [8], 0%. The “TRZAW damage to plant” value amounted to 20 in data set [9] (setting [10]) and 70 in data set [9] (250 g/ha, without safener).

`CON1CCN2C(=O)C(c3c(C)cc(C)cc3C)C(=O)N2CC1` [Compound P2.1, 3-Methoxy-8-(2,4,6-trimethyl-phenyl)-tetrahydro-pyrazolo[1,2-a][1,2,5]triazepine-7,9-dione]: the pest or weed control at 250 g/ha in data set [1] worked out at 90%; in [2] it was 90%; in data set [3], 100%; in data set [4], 90%; in [5], 100%; in data set [6], 100%. Also, the results for the pest or weed control at 250 g/ha in data set [7] and in [8] were 100% and 90%, respectively. In addition, the “TRZAW damage to plant” value in [9] (setting [10]) turned out to be 30; in data set [9] (250 g/ha, without safener), 60.

The values are drawn from patent US9282743B2, “Chemical compounds” (Syngenta Participations AG, priority 2011, dated 2016).
